Measurements published in EP0051301A1, “1-Carboxy-azaalkyl-indolin-2-carboxylic acids, process for preparing them, pharmaceutical compositions containing them and their therapeutical use” (CIBA-GEIGY AG, priority 1980, dated 1982).
Where a name gives a salt, the structure may show the parent alone.

Legend:
[1] = molecular target: T1, angiotensin converting enzyme = ACE (Oryctolagus cuniculus, UniProt P12822); experiment: In vitro ACE inhibition (ACEI), release of histidyl-leucine from hippuryl-histidyl-leucine, rabbit lung tissue preparation; assay type: biochemical, Kaninchen; conditions: incubation 30 min at 37°
T1 construct: Dieses Enzym wird aus Lungen von erwachsenen männlichen Kaninchen in Tris-Puffer; from tissue; host or cells: lung of adult male rabbits
T1 sequence (P12822 34-1310): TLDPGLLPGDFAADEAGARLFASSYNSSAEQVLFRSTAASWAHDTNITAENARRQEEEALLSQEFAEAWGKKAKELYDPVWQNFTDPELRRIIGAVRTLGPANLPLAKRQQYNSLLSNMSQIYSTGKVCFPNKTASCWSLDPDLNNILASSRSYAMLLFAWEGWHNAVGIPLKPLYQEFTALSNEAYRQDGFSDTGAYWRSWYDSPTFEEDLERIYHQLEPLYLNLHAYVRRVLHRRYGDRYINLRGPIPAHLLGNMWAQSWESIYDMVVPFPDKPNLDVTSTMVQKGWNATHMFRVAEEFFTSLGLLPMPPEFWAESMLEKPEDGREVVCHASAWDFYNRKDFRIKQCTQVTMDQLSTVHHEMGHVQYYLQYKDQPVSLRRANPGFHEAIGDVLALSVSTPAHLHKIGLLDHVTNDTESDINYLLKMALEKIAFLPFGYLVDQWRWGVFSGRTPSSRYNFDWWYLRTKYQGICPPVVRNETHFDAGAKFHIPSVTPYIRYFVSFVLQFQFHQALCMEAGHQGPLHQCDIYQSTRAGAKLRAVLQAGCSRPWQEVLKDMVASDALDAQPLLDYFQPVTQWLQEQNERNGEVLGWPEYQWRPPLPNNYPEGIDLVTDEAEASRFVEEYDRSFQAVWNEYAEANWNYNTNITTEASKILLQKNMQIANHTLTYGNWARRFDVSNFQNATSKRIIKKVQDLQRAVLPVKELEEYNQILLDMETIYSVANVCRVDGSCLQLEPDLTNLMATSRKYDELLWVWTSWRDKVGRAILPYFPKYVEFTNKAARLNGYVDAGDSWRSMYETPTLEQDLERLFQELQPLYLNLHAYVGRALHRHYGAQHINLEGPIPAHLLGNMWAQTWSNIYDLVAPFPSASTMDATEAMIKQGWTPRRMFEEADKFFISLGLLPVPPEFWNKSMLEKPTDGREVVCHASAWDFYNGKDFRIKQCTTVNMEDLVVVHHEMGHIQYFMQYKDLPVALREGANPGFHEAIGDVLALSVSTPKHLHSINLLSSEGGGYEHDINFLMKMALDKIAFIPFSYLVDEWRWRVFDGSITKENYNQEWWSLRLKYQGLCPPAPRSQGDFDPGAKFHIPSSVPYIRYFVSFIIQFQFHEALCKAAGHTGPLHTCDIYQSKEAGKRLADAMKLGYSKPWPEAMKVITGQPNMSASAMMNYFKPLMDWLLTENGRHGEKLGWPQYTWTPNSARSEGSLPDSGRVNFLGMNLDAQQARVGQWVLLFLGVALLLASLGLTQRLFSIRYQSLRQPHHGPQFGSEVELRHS
From the text: Die in vitro Hemmung des Enzyms, welches das Angiotensin umwandelt, kann bei den Verbindungen dieser Erfindung analog zu Biochim. Biophys. Acta 293, 451 (1973) nachgewiesen werden. Gemäss dieser Methode werden die genannten Verbindungen in ungefähr 1 mMol Konzentrationen in Phosphatpuffer, welcher von aussen mit Eis gekühlt wird, aufgelöst. Zu diesen Lösungen gibt man zuerst verschiedene µl-Mengen von 1 mMolarem Histidyl-leucin in Phosphatpuffer und dann 100 pl von 5mMolarem Hippuryl-histidyl-leucin in Phosphatpuffer und 50 pl des Angiotensin-umwandelnden Enzyms. Dieses Enzym wird aus Lungen von erwachsenen männlichen Kaninchen in Tris-Puffer, der Kalium-und Magnesiumchlorid und auch Rohrzucker enthält, frisch hergestellt. Die genannten Lösungen werden 30 Minuten bei 37° inkubiert und die weitere Reaktion wird durch Hinzufügen von 0,75 ml einer 0,6-normalen wässerigen Natriumhydroxidlösung gestoppt. Dann gibt man bei Zimmertemperatur 100 µl o-Phthalaldehyd und nach 10 Minuten 100 µl 6-normaler Chlorwasserstoffsäure dazu. Die Proben werden in einem Spektroghotometer bei 360 nm mit Wasser verglichen und ihre optische Dichte wird bestimmt. Diese Werte werden durch einen Konversionsfaktor einer Standard-Kurve angepasst, wobei man die während der genannten Inkubation von 30 Minuten gebildete Histidyl-leucin-Menge in Nanomolen erhält. Die Ergebnisse werden, um den IC50-Wert zu bestimmen, gegenüber den Wirkstoff-Konzentrationen graphisch als Kurve dargestellt. Dieser Wert bedeutet diejenige Wirkstoff-Konzentration, welche die Hälfte der Aktivität einer Kontrollprobe, die keinen Wirkstoff enthält, ergibt. Die genannten repräsentativen Verbindungen der vorliegenden Erfindung sind auch in diesem in vitro Testsystem, bis zu dem IC50-Wert von 39 nM und darunter, sehr wirksam.
Die Prüfung der Wirkung von Verbindungen ist gemäss den Methoden für die Auswertung der Hemmung des Enzyms, welches das Angiotensin umwandelt [angiotensin converting enzyme = ACE] durchgeführt worden. […]

[2] = test system: durch Angiotensin I (AI) hervorgerufenen Blutdrucksteigerung; experiment: Inhibition of the blood pressure rise caused by angiotensin I in anaesthetised normotensive rats; assay type: in vivo, Ratte; conditions: rat, mean value 30 min after administration
From the text: Die neuen Verbindungen zeigen auch eine Hemmwirkung auf das Ansprechen des Blutdrucks von normotensiven Ratten auf Angiotensin I. Das Enzym Renin verursacht unter normalen Verhältnissen eine spezifische Hydrolyse des zirkulierenden Renin-Substrat-Proteins. Diese Hydrolyse ergibt das Angiotensin I, welches durch die Einwirkung des genannten Enzyms, welches das Angiotensin umwandelt, in das stark gefässverengernde Angiotensin II weiter hydrolysiert wird. Durch Hemmung des genannten Enzyms wird die Entstehung des Angiotensins II aus I verhindert. Diese Hemmung dämpft daher jedes Ansprechen des Blutdrucks nach einer Angiotenin-I-Attacke.
Der entsprechende in vivo Test wird mit männlichen, normotensiven Ratten, welche mit 100-120 mg/kg intraperitoneal verabreichtem Natriumsalz des Aethyl-(l-methylpropyl)-malonylthioharnstoffs narkotisiert sind, vorgenommen. Eine femurale Arterie und eine Wadenvene werden mit je einer Hohlnadel für die direkte Messung des Blutdrucks und für die intravenöse Verabreichung des Angiotensins I und der erfindungsgemässen Verbindungen, versehen. Nach der Stabilisierung des basalen Blutdrucks, wird die Druckänderung nach drei, in 5-minutigen Intervallen durchgeführten, Reizungen mit 0,33 µg/kg Angiotensin I i.v., bestimmt. Druckänderungen werden auch 5, 10, 15, 30 und 60 Minuten nach entweder intravenöser oder peroraler Verabreichung (mit Magensonde) der zu prüfenden Verbindungen bestimmt. Die letztgenannten Druckänderungen werden mit den Anfangswerten verglichen. Jede festgestellte Abnahme vom Ansprechen des Blutdrucks ist ein Hinweis auf die Hemmung des Enzyms, welches das Angiotensin umwandelt. Diese Abnahme kann bis zu 80%, nach Dosen von 10 mg/kg i.v. oder 50 mg/kg p.o., betragen und bis 60 Minuten lang andauern.
In der in vivo Prüfungsmethode wird zuerst durch Verabreichung des Angiotensins 1 (AI) an das Versuchstier eine Blutdrucksteigerung hervorgerufen. Es wird dann die Hemmung der einzelnen Verbindungen auf diese Blutdrucksteigerung gemessen.
II. Methode der Hemmung der durch Angiotensin I (AI) hervorgerufenen Blutdrucksteigerung, durch intravenöse Verabreichung der Testverbindung (Z AI-Hemmung) In diesen Untersuchungen wird wie oben beschrieben, je ein Katheter in eine femurale Arterie und in eine Wadenvene der Ratte eingeführt.
Der arterielle Druck wurde von dem Arterienkatheter aus registriert, während man Angiotensin I (AI) und die einzelnen Testverbindungen durch den Venenkatheter injiziert hatte. Die Hemmung der durch Angiotensin I verursachten Blutdrucksteigerung ist in der Tabelle als Durchschnittswert 30 Minuten nach der Verabreichung von ausgewählten Dosen der jeweiligen Verbindung wiedergegeben. Dabei werden solche Dosierungen ausgewählt, so dass u.a. der ID50 (i.v.)-Wert ermittelt werden kann.

Compound | IC50 [1] | % AI Hemmungen ([2]; i.v. Dosis 0.1 mg/kg) | % AI Hemmungen ([2]; i.v. Dosis 0.03 mg/kg) | % AI Hemmungen ([2]; i.v. Dosis 0.06 mg/kg) | % AI Hemmungen ([2]; i.v. Dosis 1.0 mg/kg)
C[C@H](NC(CCc1ccccc1)C(=O)O)C(=O)N1c2ccccc2C[C@H]1C(=O)O (stereo partly drawn) [Beispiel 1, 1-[N-(1-Carboxy-3-phenylpropyl)-S-alanyl]-indolin-2S-carbonsäure] | 6 nM | 80% | – | – | –
CCOC(=O)[C@H](CCc1ccccc1)N[C@@H](C)C(=O)N1c2ccccc2C[C@H]1C(=O)O [Beispiel 4, 1-[N-(lS-Carboäthoxy-3-phenyl-propyl)-S-alanyl]-indolin-2S-carbonsäurehydrochlorid] | – | 95% | 33% | 80% | –
CCOC(=O)[C@@H](CCc1ccccc1)N[C@@H](C)C(=O)N1c2ccccc2C[C@H]1C(=O)O [Beispiel 6, 1-[N-(lR-Carboäthoxy-3-phenyl-propyl)-S-alanyl]-indolin-2S-carbonsäure-hydrochlorid] | 8000 nM | 35% | – | – | –
C[C@H](NC(Cc1ccccc1)C(=O)O)C(=O)N1c2ccccc2C[C@H]1C(=O)O (stereo partly drawn) [Beispiel 7, 1-[N-(1-Carboxy-2-phenyl-äthyl)-S-alanyl]-indolin-2S-carbonsäure] | 30 nM | – | – | – | 80%
